Data reported in patent EP0369453A2, “AGE-formation inhibitory agents” (Takeda Chemical Industries, Ltd., priority 1988, dated 1990).
Marks after values point to notes of the source that are not given here.

Test system: advanced glycosylated end products (AGE)
Test: AGE formation inhibition: bovine serum albumin incubated with D-glucose, fluorescence measurement (method of Brownlee et al.)
Format: biochemical
Conditions: bovine serum albumin 20%, D-glucose 100 mM, 0.5M phosphate buffer pH 7.4, 37° C for 7 days, fluorescence 370/440 nm, control = 100%
Description: The production of advanced glycosylated end products (AGE) and its measurement were carried out in accordance with the report by Brownlee et al. [Science, 232 1629 (1986)]. Thus, bovine serum albumin (fraction V, manufactured by Wako Pure Chemical Ind. of Japan, 20%), D-glucose (100 mM) and sodium azide (3 mM) were dissolved in 0.5M phosphate buffer (pH 7.4) to prepare a reaction solution (control). A test specimen was dissolved in dimethyl sulfoxide, and the solution was added to the reaction solution to the concentrations 1 mM, 0.5 mM and 0.2 mM, respectively. These solutions were incubated at 37° C for 7 days, whereupon the solutions, before and after incubation, were diluted with phosphate buffer, followed by measurement of fluoresceces (by use of RF-510 spectrofluorimeter, manufactured by Shimadzu Seisakusho of Japan) at 370 nm of the excitation wavelength and 440 nm of the emission wavelength. The variation in fluorescence (F) was utilized to calculate the formation ratio (%) following the formula described below. In the above tests, the blind test was carried out using the reaction solution free from D-glucose. The AGE were calculated by the following equation: Formation ratio = [ F(T) - F(B)]/[ F(C) - F(B)] x 100 [formula] where F(T), F(B) and F(C) are variations in fluorescence for test specimen, blind test specimen and control, respectively.

[1] = Concentration of test specimen: 0.5 mM
[2] = Concentration of test specimen: 1 mM

Structure (SMILES)	AGE Formation Ratio (% against the control value) [1]	AGE Formation Ratio (% against the control value) [2]
O=C(NC(=S)Nc1nc(-c2ccc3c(c2)CCCC3)cs1)c1ccc(F)cc1 [Example 26]	34^2) %	
O=C(NC(=S)Nc1nc(-c2ccc3c(c2)CCCC3)cs1)c1ccc2ccccc2c1 [Example 34]	0^2) %	
CCc1sc(NC(=S)NC(=O)c2ccccc2)nc1-c1ccc2c(c1)CCCC2 [Example 20]	0^2) %	
O=C(NC(=S)Nc1nc(-c2ccc3c(c2)CCCC3)c(-c2ccccc2)s1)c1ccccc1 [Example 22]		31^1) %
O=C(NC(=S)Nc1nc(-c2ccc3ccccc3c2)cs1)c1ccccc1 [Example 15]	46^2) %	
O=C(NC(=S)Nc1nc(-c2ccc3c(c2)CCCC3)cs1)c1c2ccccc2cc2ccccc12 [Example 63]		54^1) %
Cc1ccccc1C(=O)NC(=S)Nc1nc(-c2ccc3c(c2)CCCC3)cs1 [Example 27]		0^1) %
O=C(NC(=S)Nc1nc(-c2ccc3c(c2)CCCC3)cs1)c1ccc(Cl)cc1 [Example 23, 1-(4-chlorobenzoyl)-3-[4-(5,6.7,8-tetrahydro-2-naphthyl-)2-thiazolyl]thiourea]		51^1) %
O=C(NC(=S)Nc1nc(-c2ccc3c(c2)CCCC3)cs1)c1ccc2c(c1)CCCC2 [Example 60]	17^2) %	
O=C(NC(=S)Nc1nc(-c2ccc(Cl)cc2)cs1)c1ccccc1 [Example 10]		30^1) %
CCCCC(CC)C(=O)NC(=S)Nc1nc(-c2ccc3c(c2)CCCC3)cs1 (stereo not drawn) [Example 72]		58^1) %
O=C(NC(=S)Nc1nc(-c2ccc3c(c2)CCCC3)cs1)c1ccccc1C(F)(F)F [Example 47]		16^1) %
O=C(NC(=S)Nc1nc(-c2ccc3c(c2)CCCC3)cs1)c1ccncc1 [Example 31]	53^2) %	
COc1ccc(-c2csc(NC(=S)NC(=O)c3ccccc3)n2)cc1 [Example 11]		66^1) %
O=C(NC(=S)Nc1nc(-c2ccc3c(c2)CCCC3)cs1)c1ccccc1 [Example 1, 1-benzoyl-3-[4-(5,6,7,8-tetrahydro-2-naphthyl)-2-thiazolyl] thiourea]	43^2) %	
O=C(NC(=S)Nc1nc(-c2ccc(C(F)(F)F)cc2)cs1)c1ccccc1 [Example 8]		58^1) %
Cc1ccc(C)c(C(=O)NC(=S)Nc2nc(-c3ccc4c(c3)CCCC4)cs2)c1 [Example 42]	35^2) %	
O=C(/C=C/c1ccccc1)NC(=S)Nc1nc(-c2ccc3c(c2)CCCC3)cs1 [Example 37]		49^1) %
O=C(NC(=S)Nc1nc(-c2ccc3c(c2)OCCO3)cs1)c1ccccc1 [Example 13]		45^1) %
CC(C)c1sc(NC(=S)NC(=O)c2ccccc2)nc1-c1ccc2c(c1)CCCC2 [Example 21]	19^2) %	
Cc1ccc(-c2csc(NC(=S)NC(=O)c3ccccc3)n2)cc1 [Example 4]		47^1) %
